Consider seven molecules from patent US20200123127A1, “REMOVAL OF SENESCENCE-ASSOCIATED MACROPHAGES” (EVERON BIOSCIENCES, INC., priority 2016, published 2020).

Entries after “also recorded” stand apart in the source; their conditions may differ.

Assay [1] concerns p16(Ink4a) expression in SAMs. The experiment in a line: p16(Ink4a) promoter-dependent luciferase activity in alginate bead-elicited macrophages (SAMs) ex vivo. To be noted: for Modulation of p16(Ink4a): SAMs: SAMs from NDF alginate beads, dose-response testing; for effect on luciferase activity (M1-inducing agents): IFN-γ 10 ng/mL, Poly(I:C) 10 μg/mL, IFN-α 100 U/mL, 72 hours. The format is cell-based, mouse. The procedure:
(§1) FIG. 7. Immunomodulatory regulation of p16(Ink4a) and SAβG in macrophages. Peritoneal lavage cells elicited by alginate-encapsulated SCs from p16^Ink4a/Luc mice were treated ex vivo with immunomodulatory agents for 72 hours. A) p16 promoter-dependent luciferase activity (black bars) and […] activity (via 4-MUG hydrolysis) (gray bars) were measured following treatment with M1- and M2-polarizing stimuli: LPS at 1 ng/mL, IFN-γ at 10 ng/mL, LPS/IFN-γ co-treatment, Poly(I:C) at 10 μg/mL, IFN-α at 100 U/mL, IL-4 at 20 ng/mL, IL-13 at 10 ng/ml, and IL-4/IL-13 co-treatment. Results are shown as the mean±standard deviation for at least 3 independent experiments, with statistical significance between treated compared to non-treated samples depicted. B) Dose-dependent response of JAK1/2 inhibitor Ruxolitinib on luciferase activity in elicited macrophages in the presence (gray bars) or absence (black bars) of IL-4 (10 ng/mL) stimulation. Enzyme activities are expressed as the percent activity relative to non-treated (NT) controls per cell. Statistical significance between IL-4 stimulated and non-stimulated cells at each concentration of ruxolitinib is shown.
FIG. 8. Immunomodulatory regulation of p16(Ink4a) and SAβG in macrophages. Peritoneal lavage cells elicited by alginate-encapsulated SCs from p16^Ink4a/Luc mice were treated ex vivo with immunomodulatory agents for up to 72 hours. (A) mRNA expression of p16(Ink4a) and β-galactosidase (Glb1) in macrophages (relative to B2m expression) with or without LPS stimulation for 72 hours analyzed via qRT-PCR, normalized to non-treated controls. (B) Microphotograph of SAβG-stained adherence-selected macrophages with or without stimulation with LPS (1 ng/mL) for 72 hours (10× objective). (C&D) Kinetics of p16(Ink4a) promoter-dependent luciferase activity per cell with or without LPS stimulation (C) or IL-4 stimulation (D), normalized to activity from non-treated cells at time zero. Results are shown as the mean±standard deviation for at least 3 experiments. Statistical significance with respect to non-treated control at time zero is indicated. (E) Luciferase activity and (3-galactosidase activity (via 4-MUG hydrolysis) from proteose peptone-elicited lavage cells following stimulation with IL-4 (20 ng/mL) for 72 hours, normalized to non-treated controls. (F) Viability following 72 hour dose-response to JAK1/2 inhibitor Ruxolitinib in the presence or absence of IL-4 (10 ng/mL) stimulation, measured by CyQuant Direct DNA-based viability assay. Viability normalized to respective controls lacking Ruxolitinib. (G&H) Dose-response of STAT6 inhibitor AS1517499 against luciferase activity (G) and viability via CyQuant Direct assay (H) following 72 hour treatment in the presence and absence of IL-4 (10 ng/mL). Results normalized to respective controls (with or without IL-4) lacking STAT6 inhibitor. Statistical significance is calculated with respect to the difference between IL-4 stimulated and non-stimulated cells at each concentration of STAT6 inhibitor. (I) Relative luciferase activity per cell following repolarization with M1- and M2-inducing agents. Macrophages were left non-treated (NT) or treated with either LPS (1 ng/ml) or IL-4 (20 ng/ml) for 72 hours (days 1-3), as indicated. For each treatment set, samples were collected at 72 hours (no further treatment; days 4-6=x). Alternatively, cells were washed and placed in fresh medium (−), medium containing LPS (1 ng/mL) and IFN-γ (10 ng/mL), or medium containing IL-4 (20 ng/mL) and IL-13 (10 ng/mL) and incubated for an additional 72 hours prior to sample collection (as indicated for days 4-6). Luciferase activity is expressed as the percent activity per cell relative to non-treated (NT) controls after the first 72 hours.
Luciferase activity of cell lysates was accessed using Bright-Glo™ Luciferase Assay System (Promega; Madison, Wis.) according to manufacturer's instructions with minor modifications. […]

Assay [2] has as its system β-galactosidase in SAMs. The experiment in a line: β-galactosidase activity (4-MUG hydrolysis) in alginate bead-elicited macrophages (SAMs) ex vivo. To be noted: for β-galactosidase production by SAM cells (MUG assay): concentrations of 2.5 to 10 μM; for effect on β-gal activity (polarizing agents): 72 hours, IFN-γ 10 ng/mL, Poly(I:C) 10 μg/mL, IFN-α 100 U/mL, IL-4 20 ng/mL, IL-13 10 ng/ml. The assay is classed as cell-based, mouse. As for the experimental part: as §1
FIG. 13. Effect of TA-4812 on β-gal expression and cell viability. Asenins TA-04812-1, was assayed for its effects on SAM viability, proliferation, and β-gal expression. SAM viability was determined using the resazurin cell viability assay (Res). Cell proliferation was assessed using the CyQuant assay (CyQUANT® Direct Cell proliferation Assay, ThermoFisher Scientific, Waltham, Mass., Catalog # C35011, performed according to manufacturer's instructions) (CyQ). β-gal production was assessed using the MUG assay, a quantitative assay to determine the level of β-gal expression using 4-methylumbelliferylgalactopyranoside (MUG) as substrate.
A fluorogenic substrate for β-galactosidase, 4-MUG (4-Methylumbelliferyl β-D-Galactopyranoside; Sigma-Aldrich), was used for the quantitation of enzymatic β-gal activity from cell lysates, assayed under β-gal^pH6 conditions (i.e. pH 6.0). In a 96-well white microplate, 5 μl of diluted cell lysate was combined with 45 μl of fluorogenic β-gal^pH6 reaction buffer: 1 mM 4-MUG in 100 mM citric acid/sodium phosphate buffer, pH 6.0, containing 2 mM MgCl2, 150 mM NaCl and 0.02% NP-40. Kinetics of product formation at room temperature was determined by measuring fluorescence (Ex/Em 360 nm/440 nm) of the reaction mixture at regular intervals over a 2-hour time period. Reaction endpoints were determined by addition of 150 μl of 700 mM sodium carbonate. The rate of reaction (RFU/min) for each sample was determined, and normalized per μg of protein.
To determine whether macrophage polarization regulates p16(Ink4a) and SAβG expression, peritoneal lavage from p16^Ink4a/Luc mice elicited by our alginate bead model were stimulated with M1- and M2-inducing agents and subsequently, luciferase activity (driven by endogenous p16(Ink4a) promoter) and β-galactosidase activity (assayed via 4-MUG hydrolysis) were measured (FIG. 7A). […] Consistently, LPS decreased the intensity of SAβG staining in treated macrophages. The response of macrophages to LPS was rapid, with a significant decrease in luciferase activity observed within 8 hours (˜40% decrease).
We investigated whether the mechanisms regulating the expression of these traits in macrophages were similar to those found in SCs. Using cells isolated from p16^Ink4a/Luc mice, the dose-dependent response of luciferase and β-galactosidase activities to immunomodulatory stimuli in macrophages was compared to that of proliferating and irradiation-induced senescent adipose-derived mesenchymal stromal cells. […] LPS stimulation of alginate bead model-elicited macrophages reduced luciferase activity, with maximal inhibition (˜85%) observed at concentrations ≥1 ng/mL (FIG. 10A). In addition, β-galactosidase activity was reduced by 40% at 10 ng/mL (FIG. 10B). […]

Turning to `COc1ccc(C2CC(=NO)c3c(SCc4ccccc4)sc(C(=O)NCc4cccc(F)c4)c3C2)cc1` (stereo not shown) [Example A1.6, 3-(Benzylthio)-N-(3-fluorobenzyl)-4-(hydroxyimino)-6-(4-methoxyphenyl)-4,5,6,7-tetrahydrobenzo[c]thiophene-1-carboxamide], the “Modulation of p16(Ink4a): SAMs” value in assay [1] was “decrease”. The “β-galactosidase production by SAM cells (MUG assay)” value was “reduce β-galactosidase production” in assay [2] (listed as TA-4812) and “reducing β-gal expression” in assay [2] (listed as TA-04812-1).
Consider Poly(I:C), for which the “luciferase activity, dose-response” value in assay [1] (72 hr, selective to macrophages) is “dose-dependent decrease”. For the same molecule, in assay [1], the “effect on luciferase activity (M1-inducing agents)” value (“effect on luciferase activity” for short) is “decreased luciferase activity” and the “Modulation of p16(Ink4a): SAMs” value was “decrease”. Besides, the “effect on β-gal activity (polarizing agents)” value (“effect on β-gal activity” below) in assay [2] is “without affecting β-gal activity”. Also, in assay [2] (Poly(I:C), 72 hr), the “β-galactosidase activity, dose-response” value was “no effect”.
For the molecule IL-13: M2-polarizing cytokine, the “Modulation of p16(Ink4a): SAMs” value in assay [1] is reported as “increase”. For the same molecule, the “effect on β-gal activity” value in assay [2] is “without modulating β-gal activity”.
As for IFN-α, the “effect on luciferase activity” value in assay [1] is “decreased luciferase activity”. Moreover, the “effect on β-gal activity” value in assay [2] is “without affecting β-gal activity”.
In the case of `O=C(NCCCc1cn[nH]c1)c1ccc(-c2ccncc2)c(C#Cc2ccc(F)cc2)c1` [OT-82], the “expression of p16 (luciferase) in SAMs” value in assay [1] (OT-82, 500 nM) is given as “selectively decrease; also recorded: significantly downregulates”. Also, the “Modulation of p16(Ink4a): SAMs” value in assay [1] is given as “decrease”. Moreover, the “β-galactosidase expression/activity in SAMs” value in assay [2] (OT-82, 500 nM) was “no effect; also recorded: little effect”.
As to IL-4: M2-polarizing cytokine, the “Modulation of p16(Ink4a): SAMs” value in assay [1] is listed as “increase”. Moreover, the “effect on β-gal activity” value in assay [2] is given as “without modulating β-gal activity”.

B1: IFN-γ: type II interferon, M1-inducing agent (protein, UniProt P01579 24-161, looked up)
Interferon gamma: QDPYVKEAENLKKYFNAGHSDVADNGTLFLGILKNWKEESDRKIMQSQIVSFYFKLFKNFKDDQSIQKSVETIKEDMNVKFFNSNKKKRDDFEKLTNYSVTDLNVQRKAIHELIQVMAELSPAAKTGKRKRSQMLFRG
For the molecule B1, the “effect on luciferase activity” value in assay [1] is on record as “decreased luciferase activity”. In assay [2], the “effect on β-gal activity” value is recorded as “without affecting β-gal activity”.
